For the experiment, the target named is T1, GPR84 (Homo sapiens, UniProt Q9NQS5).
T1 construct: expressed in transfected cells; host or cells: HTLA cells (HEK293 line stably expressing a tTA-dependent luciferase reporter and a β-arrestin2-TEV fusion gene), transiently transfected with PEI
Kind of experiment: PRESTO-Tango β-arrestin2 recruitment assay, GPR84 antagonistic activity. The following applies: antagonist activity in the Presto-TANGO assay; inhibition of the response from the agonist ZQ-16 (100 nM); HTLA cells. In kind it is cell-based. As to the method: PRESTO-Tango β-arrestin recruitment assay (W.K. Kroeze et al., 2015). HTLA cells (a HEK293 cell line stably expressing a tTA-dependent luciferase reporter and a β-arrestin2-TEV fusion gene) were maintained in Dulbecco's Modified Eagle's Medium (DMEM) supplemented with 10% Fetal Bovine Serum (dFBS), 100 U/mL penicillin and 100 μg/mL streptomycin, 2 μg/mL puromycin and 100 μg/mL hygromycin B in a humidified atmosphere at 37° C. in 5% CO2. For transfection, cells were plated at 9×10^6 to 10×10^6 cells per 15-cm cell-culture dish (day 1). The following day (day 2), cells were transfected by adding 5 μg DNA and 15 μg polyethylenimine (PEI) diluted in 1 mL Opti-MEM (Reduced Serum Medium supplied by ThermoFisher). On day 3, transfected cells were transferred at 25000 cells per well in 40 μl of medium into poly-l-lysine-coated and rinsed 384-well white, clear-bottomed cell-culture plates (Greiner Bio-One). On day 4, dilutions of the ligands to be tested were prepared in 1% dFBS DMEM and 10 μL were added to each well. On day 5, 20 μl per well of Bright-Glo solution (Promega) diluted 10-fold in assay buffer (Hanks' Balanced Salt Solution [HBSS], 20 mM HEPES, 1 mM CaCl2, 1 mM MgCl2, pH adjusted to 7.4 by 5 M NaOH) was added to each well. After incubation for 20 min at room temperature, luminescence was counted in an Enspire luminescence counter at 384 nm. Results in the form of relative luminescence units (RLU) were exported into Excel spreadsheets, and GraphPad Prism was used for analysis of data. To measure constitutive activity, no ligand was added on day 4.
The GPR84 antagonistic activity of the compounds was determined using the PRESTO-Tango β-arrestin2 recruitment assay (Assay I, see assays above), from which the concentration of each compound required for 50% inhibition (IC50) of the response from the agonist ZQ-16 (100 nM) was determined. The antagonistic activity for each compound is given in Table 1 as the pIC50, which is the negative log of the IC50 value when converted to molar.
On the technique in general: Arrestin recruitment assays detect the binding of arrestin to an activated receptor.

Structures can show the parent of a compound that is named as a salt.

As usually defined, the IC50 is the midpoint of a concentration-inhibition curve.

T1 sequence (Q9NQS5 whole entry, the tested form may be a part): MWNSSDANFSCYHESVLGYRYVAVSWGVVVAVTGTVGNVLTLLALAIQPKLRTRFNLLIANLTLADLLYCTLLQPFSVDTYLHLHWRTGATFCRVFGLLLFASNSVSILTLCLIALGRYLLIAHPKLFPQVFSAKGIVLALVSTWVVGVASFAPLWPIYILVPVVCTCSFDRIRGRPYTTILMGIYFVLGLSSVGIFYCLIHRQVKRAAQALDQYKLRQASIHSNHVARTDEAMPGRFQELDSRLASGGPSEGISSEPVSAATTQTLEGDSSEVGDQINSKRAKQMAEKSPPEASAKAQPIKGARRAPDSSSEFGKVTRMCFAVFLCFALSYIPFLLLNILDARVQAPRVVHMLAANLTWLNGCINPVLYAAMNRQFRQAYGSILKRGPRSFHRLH

Molecule `CCCc1ccc(CCc2nc(OCC3CCCCO3)cc(O)c2-c2ccc(O)cc2)cc1` (stereo not shown) [Example 17, 3-(4-Hydroxyphenyl)-2-(4-propylphenethyl)-6-((tetrahydro-2H-pyran-2-yl)methoxy)pyridin-4-ol] had an IC50 of 93.3 nM. That is a double-digit nanomolar value. With `CCCc1ccc(CCc2nc(OCC3CCCCO3)cc(O)c2-c2ccc(OCC(=O)OC)cc2)cc1` (stereo not shown) [Example 18, Methyl 2-(4-(4-hydroxy-2-(4-propylphenethyl)-6-((tetrahydro-2H-pyran-2-yl)methoxy)pyridin-3-yl)phenoxy)acetate] the figure was 148 nM; with `CCCc1ccc(CCc2nc(OCC3CCCCO3)cc(O)c2-c2ccc(OCC(=O)O)cc2)cc1` (stereo not shown) [Example 19, 2-(4-(4-Hydroxy-2-(4-propylphenethyl)-6-((tetrahydro-2H-pyran-2-yl)methoxy)pyridin-3-yl)phenoxy)acetic acid], 93.3 nM. With `CCCc1ccc(CCc2nc(OCC3CCCCO3)cc(O)c2-c2ccc(C(=O)OC)cc2)cc1` (stereo not shown) [Example 20, Methyl 4-(4-hydroxy-2-(4-propylphenethyl)-6-((tetrahydro-2H-pyran-2-yl)methoxy)pyridin-3-yl)benzoate] the figure was 145 nM. The figure for `CCCc1ccc(CCc2nc(OCC3CCCCO3)cc(O)c2-c2ccc(C(=O)O)cc2)cc1` (stereo not shown) [Example 21, 4-(4-Hydroxy-2-(4-propylphenethyl)-6-((tetrahydro-2H-pyran-2-yl)methoxy)pyridin-3-yl)benzoic acid] is 141 nM; for `CCCc1ccc(CCc2nc(OCC3COCCO3)cc(O)c2C)cc1` (stereo not shown) [Example 22, 6-((1,4-Dioxan-2-yl)methoxy)-3-methyl-2-(4-propylphenethyl)pyridin-4-ol] it is 3.02 nM; for `CCOc1ccc(CCc2nc(OCC3COCCO3)cc(O)c2C)cc1` (stereo not shown) [Example 23, 6-((1,4-Dioxan-2-yl)methoxy)-2-(4-ethoxyphenethyl)-3-methylpyridin-4-ol] it is 3.31 nM.

In turn, `CCOc1ccc(CCc2nc(OC[C@@H]3COCCO3)cc(O)c2C)cc1` [Example 24, (S)-6-((1,4-dioxan-2-yl)methoxy)-2-(4-ethoxyphenethyl)-3-methylpyridin-4-ol] showed an IC50 of 1.07 nM. With `CCCc1ccc(CCc2nc(OCC3COCCO3)cc(O)c2CC)cc1` (stereo not shown) [Example 25, 6-((1,4-Dioxan-2-yl)methoxy)-3-ethyl-2-(4-propylphenethyl)pyridin-4-ol] the figure was 0.776 nM; with `CCOc1ccc(CCc2nc(OCC3COCCO3)cc(O)c2CC)cc1` (stereo not shown) [Example 26, 6-((1,4-Dioxan-2-yl)methoxy)-2-(4-ethoxyphenethyl)-3-ethylpyridin-4-ol], 0.389 nM; with `Cc1c(O)cc(OCC2COCCO2)nc1CCc1ccc(OCCNC(=O)OC(C)(C)C)cc1` (stereo not shown) [Example 27, Tert-butyl (2-(4-(2-(6-((1,4-dioxan-2-yl)methoxy)-4-hydroxy-3-methylpyridin-2-yl)ethyl)phenoxy)ethyl)carbamate], 0.282 nM.

`CCOC(=O)COc1ccc(CCc2nc(OCC3COCCO3)cc(O)c2C)cc1` (stereo not shown) [Example 28, Ethyl 2-(4-(2-(6-((1,4-dioxan-2-yl)methoxy)-4-hydroxy-3-methylpyridin-2-yl)ethyl)phenoxy)acetate] gave an IC50 of 11.2 nM. The figure for `Cc1c(O)cc(OCC2COCCO2)nc1CCc1ccc(OCCN)cc1` (stereo not shown) [Example 29, 2-(4-(2-(6-((1,4-Dioxan-2-yl)methoxy)-4-hydroxy-3-methylpyridin-2-yl)ethyl)phenoxy)ethan-1-aminium chloride] is 16.2 nM; for `Cc1c(O)cc(OCC2COCCO2)nc1CCc1ccc(OCC(=O)O)cc1` (stereo not shown) [Example 30, 2-(4-(2-(6-((1,4-Dioxan-2-yl)methoxy)-4-hydroxy-3-methylpyridin-2-yl)ethyl)phenoxy)acetic acid] it is 1290 nM; for `CC(=O)NCCOc1ccc(CCc2nc(OCC3COCCO3)cc(O)c2C)cc1` (stereo not shown) [Example 31, N-(2-(4-(2-(6-((1,4-dioxan-2-yl)methoxy)-4-hydroxy-3-methylpyridin-2-yl)ethyl)phenoxy)ethyl)acetamide] it is 17.8 nM. In turn, `CCc1c(O)cc(OCC2COCCO2)nc1CCc1ccc(OCCNC(=O)OC(C)(C)C)cc1` (stereo not shown) [Example 32, tert-Butyl (2-(4-(2-(6-((1,4-dioxan-2-yl)methoxy)-3-ethyl-4-hydroxypyridin-2-yl)ethyl)phenoxy)ethyl)carbamate] had an IC50 of 0.209 nM. `CCc1c(O)cc(OCC2COCCO2)nc1CCc1ccc(OCCCNC(=O)OC(C)(C)C)cc1` (stereo not shown) [Example 33, tert-Butyl (3-(4-(2-(6-((1,4-dioxan-2-yl)methoxy)-3-ethyl-4-hydroxypyridin-2-yl)ethyl)phenoxy)propyl)carbamate] had an IC50 of 0.302 nM. `CCc1c(O)cc(OCC2COCCO2)nc1CCc1ccc(OCCOCCNC(=O)OC(C)(C)C)cc1` (stereo not shown) [Example 34, tert-Butyl (2-(2-(4-(2-(6-((1,4-dioxan-2-yl)methoxy)-3-ethyl-4-hydroxypyridin-2-yl)ethyl)phenoxy)ethoxy)ethyl)carbamate] had an IC50 of 0.331 nM. The figure for `CCc1c(O)cc(OCC2COCCO2)nc1CCc1ccc(OCCO)cc1` (stereo not shown) [Example 35, 6-((1,4-Dioxan-2-yl)methoxy)-3-ethyl-2-(4-(2-hydroxyethoxy)phenethyl)pyridin-4-ol] is 0.741 nM; for `CCOC(=O)CCCCOc1ccc(CCc2nc(OCC3COCCO3)cc(O)c2CC)cc1` (stereo not shown) [Example 36, Ethyl 5-(4-(2-(6-((1,4-dioxan-2-yl)methoxy)-3-ethyl-4-hydroxypyridin-2-yl)ethyl)phenoxy)pentanoate] it is 0.257 nM; for `CCc1c(O)cc(OCC2COCCO2)nc1CCc1ccc(OCC(N)=O)cc1` (stereo not shown) [Example 37, 2-(4-(2-(6-((1,4-Dioxan-2-yl)methoxy)-3-ethyl-4-hydroxypyridin-2-yl)ethyl)phenoxy)acetamide] it is 2.88 nM. With `CCc1c(O)cc(OCC2COCCO2)nc1CCc1ccc(OCCOc2ccccc2)cc1` (stereo not shown) [Example 38, 6-((1,4-Dioxan-2-yl)methoxy)-3-ethyl-2-(4-(2-phenoxyethoxy)phenethyl)pyridin-4-ol] the figure was 0.2 nM; with `CCc1c(O)cc(OCC2COCCO2)nc1CCc1ccc(OCCCS(C)(=O)=O)cc1` (stereo not shown) [Example 39, 6-((1,4-Dioxan-2-yl)methoxy)-3-ethyl-2-(4-(3-(methylsulfonyl)propoxy)phenethyl)pyridin-4-ol], 0.871 nM.

With `CCc1c(O)cc(OCC2COCCO2)nc1CCc1ccc(OCc2nc(C)no2)cc1` (stereo not shown) [Example 40, 6-((1,4-Dioxan-2-yl)methoxy)-3-ethyl-2-(4-((3-methyl-1,2,4-oxadiazol-5-yl)methoxy)phenethyl)pyridin-4-ol], the IC50 is 2.95 nM. With `CCc1c(O)cc(OCC2COCCO2)nc1CCc1ccc(OCc2nc(C(=O)OC)co2)cc1` (stereo not shown) [Example 41, Methyl 2-((4-(2-(6-((1,4-dioxan-2-yl)methoxy)-3-ethyl-4-hydroxypyridin-2-yl)ethyl)phenoxy)methyl)oxazole-4-carboxylate] the figure was 0.759 nM.

Turning to `CCc1c(O)cc(OCC2COCCO2)nc1CCc1ccc(OCCN2C(=O)c3ccccc3C2=O)cc1` (stereo not shown) [Example 42, 2-(2-(4-(2-(6-((1,4-Dioxan-2-yl)methoxy)-3-ethyl-4-hydroxypyridin-2-yl)ethyl)phenoxy)ethyl)isoindoline-1,3-dione], the IC50 was 0.977 nM. This IC50 and that of the molecule before are within 1.5-fold of each other.

On to `CCc1c(O)cc(OCC2COCCO2)nc1CCc1ccc(O)cc1` (stereo not shown) [Example 43, 6-((1,4-dioxan-2-yl)methoxy)-3-ethyl-2-(4-hydroxyphenethyl)pyridin-4-ol], for which the IC50 was 1.07 nM. The IC50 values of the last two molecules are within 1.5-fold of each other.

Turning to `[2H]C([2H])([2H])C([2H])([2H])Oc1ccc(C([2H])([2H])C([2H])([2H])c2nc(OCC3COCCO3)cc(O)c2CC)cc1` (stereo not shown) [Example 44, 6-((1,4-Dioxan-2-yl)methoxy)-2-(2-(4-(ethoxy-d5)phenyl)ethyl-1,1,2,2-d4)-3-ethylpyridin-4-ol], the IC50 is 0.209 nM. With `CCc1c(O)cc(OCC2COCCO2)nc1CCc1ccc(OCCN)cc1` (stereo not shown) [Example 45, 6-((1,4-Dioxan-2-yl)methoxy)-2-(4-(2-aminoethoxy)phenethyl)-3-ethylpyridin-4-ol hydrochloride] the figure was 2.34 nM; with `CCc1c(O)cc(OCC2COCCO2)nc1CCc1ccc(OCCCN)cc1` (stereo not shown) [Example 46, 6-((1,4-Dioxan-2-yl)methoxy)-2-(4-(3-aminopropoxy)phenethyl)-3-ethylpyridin-4-ol hydrochloride], 0.832 nM; with `CCc1c(O)cc(OCC2COCCO2)nc1CCc1ccc(OCCCCC(=O)O)cc1` (stereo not shown) [Example 47, 5-(4-(2-(6-((1,4-Dioxan-2-yl)methoxy)-3-ethyl-4-hydroxypyridin-2-yl)ethyl)phenoxy)pentanoic acid], 4.07 nM.
